# From PubChem BioAssay (NCI)
#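 48-hour exposure; five concentrations; linearly interpolated endpoints. Abbreviation: GI50, concentration required for 50% inhibition of growth. TGI denotes the concentration required for complete inhibition of growth.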
# How the values were obtained:
# Experiment in all cases: NCI tumour cell line growth inhibition, 48 h
# SNB-75 CNS = system: SNB-75 CNS
# M14 melanoma = system: M14 melanoma
# KM12 colon = system: KM12 colon
# BT-549 breast = system: BT-549 breast
# SR leukemia = system: SR leukemia
# HCC-2998 colon = system: HCC-2998 colon
# HOP-92 NSCLC = system: HOP-92 NSCLC
# XF 498 CNS = system: XF 498 CNS
# DMS 114 small cell lung = system: DMS 114 small cell lung
# HOP-18 NSCLC = system: HOP-18 NSCLC
# DLD-1 colon = system: DLD-1 colon
# M19-MEL melanoma = system: M19-MEL melanoma
# KM20L2 colon = system: KM20L2 colon
# P388 leukemia = system: P388 leukemia
# HL-60(TB) leukemia = system: HL-60(TB) leukemia
# P388/ADR leukemia = system: P388/ADR leukemia
Compound,TGI (SNB-75 CNS) [µM],TGI (M14 melanoma) [µM],TGI (KM12 colon) [µM],TGI (BT-549 breast) [µM],TGI (SR leukemia) [µM],TGI (HCC-2998 colon) [µM],TGI (HOP-92 NSCLC) [µM],TGI (XF 498 CNS) [µM],GI50 (DMS 114 small cell lung) [µM],TGI (DMS 114 small cell lung) [µM],TGI (HOP-18 NSCLC) [µM],TGI (DLD-1 colon) [µM],TGI (M19-MEL melanoma) [µM],GI50 (SNB-75 CNS) [µM],TGI (KM20L2 colon) [µM],TGI (P388 leukemia) [µM],GI50 (KM12 colon) [µM],TGI (HL-60(TB) leukemia) [µM],GI50 (HOP-92 NSCLC) [µM],TGI (P388/ADR leukemia) [µM]
COc1ccc2oc(=N)c(C(=O)Nc3ccccc3)cc2c1,28,> 100,> 100,43.8,> 100,,,,,,,,,,,,,,,
C/C1=C\[C@H](C)C[C@H](C)OC(=O)[C@H](C)NC(=O)[C@@H](Cc2ccc(O)c(Br)c2)N(C)C(=O)[C@H](C)NC(=O)[C@@H](C)C1,0.0904,> 25,> 25,4.12,,> 25,0.177,,,,,,,,,,,,,
C=CC1(C)CC(=O)C2(O)C(C)(O1)C(OC(C)=O)C(O)C1C(C)(C)CCC(O)C12C (centres undefined),> 150,,> 150,,,> 150,> 150,142,> 71.6,> 108,> 138,> 150,> 127,4.13,> 150,> 150,2.37,> 137,20.3,> 84.4
COc1ccc(N2C(=O)C3c4[nH]c5cc(C)ccc5c4C4CCC(C(C)(C)C)CC4C3C2=O)cc1 (centres undefined),6.07,> 10,> 10,,> 10,> 10,,,,,,,,,,,,> 10,,
COC1OC2COC(c3ccccc3)OC2C(O)C1OC(=S)c1ccccc1 (centres undefined),,> 100,,> 100,85.5,,> 100,,,,,,,,,,,,,
CC1(C)CCc2c(ccc(C(=O)/C=C/c3ccc(O)cc3)c2O)O1,,20.7,,22.3,30.5,,24.4,,,,,,,,,,,44.2,,
OC(C#CCN1CCCC1)(c1ccccc1)c1ccccc1Cl (centres undefined),> 100,,> 100,> 100,> 100,40.4,,,,,,,,,,,,68.3,,
